# Reference: PubChem BioAssay AID435021 (Vanderbilt High Throughput Screening Facility, 2010)
# Activity calls are given as the source filed them.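 Rule for the calls: active = response to a near-maximal acetylcholine dose cut to 15% or less of untreated controls; inactive = the rest.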
# Biological target: Muscarinic acetylcholine receptor M1 (Homo sapiens) (UniProt P11229)
# Experiment: M1 receptor antagonist activity of analogs, SAR follow-up, cell-based, CHO-K1 hM1, Fluo-4 calcium, ACh EC80 (AID 435021)
# Details: at 30 µM, active compounds read low
# Muscarinic acetylcholine receptor M1 (Homo sapiens), sequence (P11229 whole entry, looked up): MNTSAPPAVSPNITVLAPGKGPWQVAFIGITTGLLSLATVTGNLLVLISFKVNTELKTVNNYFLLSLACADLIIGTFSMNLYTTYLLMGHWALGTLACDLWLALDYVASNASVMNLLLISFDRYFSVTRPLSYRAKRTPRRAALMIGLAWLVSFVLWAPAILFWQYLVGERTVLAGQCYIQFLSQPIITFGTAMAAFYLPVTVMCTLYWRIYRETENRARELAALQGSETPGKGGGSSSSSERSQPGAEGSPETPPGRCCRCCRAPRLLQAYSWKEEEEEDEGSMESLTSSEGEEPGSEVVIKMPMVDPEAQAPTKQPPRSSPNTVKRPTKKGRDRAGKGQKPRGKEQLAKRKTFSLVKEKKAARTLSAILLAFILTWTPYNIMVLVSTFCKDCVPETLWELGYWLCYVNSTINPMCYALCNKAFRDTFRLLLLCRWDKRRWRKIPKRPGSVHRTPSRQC
row,SMILES,remaining EC80 response
1,COc1cccnc1N1CCN(C(=O)CCNS(=O)(=O)c2ccc([N+](=O)[O-])cc2)CC1,92.7% (inactive)
2,O=C(CCNS(=O)(=O)c1cccc2nsnc12)N1CCN(c2nccs2)CC1,5.68%
3,COc1cccnc1N1CCN(C(=O)CCNS(=O)(=O)c2ccccc2[N+](=O)[O-])CC1,90% (inactive)
4,COc1cccc(N2CCN(C(=O)CCNS(=O)(=O)c3cccc4nsnc34)CC2)n1,14.4%
5,Cc1ccnc(N2CCN(C(=O)CCNS(=O)(=O)c3cccc4nsnc34)CC2)c1,45.8% (inactive)
6,O=C(CCNS(=O)(=O)c1cccc2nsnc12)N1CCN(c2ncccc2C(F)(F)F)CC1,64.7% (inactive)
7,O=C(CCNS(=O)(=O)c1cccc2nsnc12)N1CCN(c2cc(C(F)(F)F)ccn2)CC1,35.4% (inactive)
8,COc1ccccc1N1CCN(C(=O)CCNS(=O)(=O)c2cccc3nsnc23)CC1,102% (inactive)
9,O=C(CCNS(=O)(=O)c1cccc2nsnc12)N1CCN(c2nc3ccccc3s2)CC1,6.19%
10,O=C(CCNS(=O)(=O)c1cccc2nsnc12)N1CCN(c2nc3ccccc3o2)CC1,13.3%
11,O=C(CCNS(=O)(=O)c1cccc2nsnc12)N1CCN(c2ccc(Br)cn2)CC1,-0.332%
12,COc1cccnc1N1CCN(C(=O)CCNS(=O)(=O)c2ccc3nsnc3c2)CC1,77.1% (inactive)
13,Cc1cccc(N2CCN(C(=O)CCNS(=O)(=O)c3cccc4nsnc34)CC2)n1,35.7% (inactive)
14,COc1cccnc1N1CCN(C(=O)CCNS(=O)(=O)c2cn(C)c(C)n2)CC1,98.5% (inactive)
15,O=C(CCNS(=O)(=O)c1cccc2nsnc12)N1CCN(c2ncc(Cl)cn2)CC1,7.16%
16,Cc1cc(Cl)nc(N2CCN(C(=O)CCNS(=O)(=O)c3cccc4nsnc34)CC2)c1C#N,3.37%
17,COc1cccnc1N1CCN(C(=O)CCNS(=O)(=O)c2cccc(-c3noc(C)n3)c2)CC1,97.5% (inactive)
18,O=C(CCNS(=O)(=O)c1cccc2nsnc12)N1CCN(c2nc(Cl)ns2)CC1,31.6% (inactive)
19,COc1cccnc1N1CCN(C(=O)CCNS(=O)(=O)c2ccccc2C#N)CC1,91.8% (inactive)
20,COc1cccnc1N1CCN(C(=O)CCNS(=O)(=O)c2cccc(C#N)c2)CC1,97% (inactive)
21,N#Cc1ccccc1N1CCN(C(=O)CCNS(=O)(=O)c2cccc3nsnc23)CC1,43.9% (inactive)

# Other lines, results leading:
row,remaining EC80 response,SMILES
1,3.23%,O=C(CCNS(=O)(=O)c1cccc2nsnc12)N1CCN(c2cccc(F)n2)CC1
2,1.97%,O=C(CCNS(=O)(=O)c1cccc2nsnc12)N1CCN(c2ccncc2)CC1
3,1.43%,Cc1cnccc1N1CCN(C(=O)CCNS(=O)(=O)c2cccc3nsnc23)CC1
4,35.8% (inactive),CN(CCC(=O)N1CCN(c2ccncc2)CC1)S(=O)(=O)c1cccc2nsnc12
5,63.5% (inactive),O=C(CCNS(=O)(=O)c1cccc2nsnc12)N1CCN(c2ccccc2F)CC1
6,0.916%,O=C(CCNS(=O)(=O)c1cccc2nonc12)N1CCN(c2ccc(Br)cn2)CC1
7,62.7% (inactive),O=C(CCNS(=O)(=O)c1cccc2nsnc12)N1CCN(c2ncccn2)CC1
8,29.7% (inactive),COc1cccnc1N1CCN(C(=O)C(F)CNS(=O)(=O)c2cccc3nonc23)CC1 (stereo unspecified)
9,8.91%,O=C(CCNS(=O)(=O)c1cccc2nsnc12)N1CCN(c2ccnc(Cl)c2)CC1
10,8.19%,O=C([C@H](F)CNS(=O)(=O)c1cccc2nonc12)N1CCN(c2ccncc2)CC1
11,6.52%,O=C(CCNS(=O)(=O)c1cccc2nsnc12)N1CCN(c2cc(F)ccn2)CC1
12,10.1%,O=C(CCNS(=O)(=O)c1cccc2nsnc12)N1CCN(c2cc(Cl)ccn2)CC1
13,13.6%,O=C(C(F)CNS(=O)(=O)c1cccc2nsnc12)N1CCN(c2ccncc2)CC1 (stereo unspecified)
14,19.4% (inactive),COc1cccnc1N1CCN(C(=O)C(F)CNS(=O)(=O)c2cccc3nsnc23)CC1 (stereo unspecified)
15,5.92%,O=C(CCNS(=O)(=O)c1cccc2nsnc12)N1CCN(c2cccc(Cl)n2)CC1
16,2.42%,O=C(C(F)CNS(=O)(=O)c1cccc2nonc12)N1CCN(c2ccncc2)CC1 (stereo unspecified)
17,56.6% (inactive),O=C([C@@H](F)CNS(=O)(=O)c1cccc2nonc12)N1CCN(c2ccncc2)CC1
18,13.6%,O=C(CCNS(=O)(=O)c1cccc2nsnc12)N1CCN(c2cccnc2)CC1
19,16.5% (inactive),O=C(CCNS(=O)(=O)c1cccc2nsnc12)N1CCN(c2ccccn2)CC1
20,3.02%,O=C(CCNS(=O)(=O)c1cccc2nonc12)N1CCN(c2ccncc2)CC1
